# Where two headings read alike, the source gives them in different places. Numbered stars: 1 amine (or outer) side, 2 acyl side, 3 side chain; on linkers, the order of the positions; unused ones are H or OH. Bridge positions count the residues as written; N and C are the ends. Square brackets hold non-standard residues; d marks the D form. Peptide text beside a SMILES is read from it. Trp(2-yl) = O=C([C@H](Cc1c([*:3])[nH]c2ccccc12)N[*:1])[*:2]; Leu(4R-OH,5-OH) = C[C@](O)(CO)C[C@H](N)C(=O)O; cisHyp = O=C(O)[C@@H]1C[C@H](O)CN1
# What was measured:
# Assay type in all cases: cell-based
# HeLa cells [1] = assay: Label-free Epic RWG biosensor DMR assay in HeLa cells cultured in regular serum medium; settings: for Effect of pretreatment on the DMAT DMR response / Effect of pretreatment on the TBB DMR response: pretreatment about 1 hr, modulators 10 μM; for Effect of pretreatment on the DMAT DMR response: then DMAT 25 μM; for Effect of pretreatment on the DMAT DMR response / Effect of pretreatment on the sequential TBB response after DMAT / Effect of pretreatment on the sequential DMAT response after TBB: TBB 50 μM; for Effect of pretreatment on the TBB DMR response: then TBB 50 μM; for Effect of pretreatment on the TBB DMR response / Effect of pretreatment on the sequential TBB response after DMAT / Effect of pretreatment on the sequential DMAT response after TBB / Sensitivity of the DMR signal to cellular status: DMAT 25 μM; for Type of DMR signal triggered by the compound alone: HeLa cells, regular serum medium, high confluency; for Classification as purinosome promoting or disrupting CK2 inhibitor: from DMR signals in HeLa cells; for Effect of pretreatment on the sequential TBB response after DMAT / Effect of pretreatment on the sequential DMAT response after TBB: order modulator (10 μM), each step about 1 hr; for EC50: Homo sapiens, synchronized HeLa cells, 25,000 cells per well; for Effect on purinosome complexes in quiescent cells: high seeding density; for Effect on purinosome complexes in proliferating cells: low seeding density; for Sensitivity of the DMR signal to cellular status: three seeding densities (5,000, 10,000, 20,000 cells per well), TBB 100 μM
# Source text: HeLa cells were obtained from American Type Cell Culture (Manassas, Va.). This cervical cancer cell line was maintained in standard serum medium (i.e., minimum essential medium (MEM) (Invitrogen) supplemented with 10% fetal bovine serum (FBS) and 1% Penicillin/streptomycin). To investigate the effects of purine depletion on the purinosome formation and dissociation, HeLa cells were maintained for at least two passages in “purine-depleted medium” prior cell assays. […] FBS was dialyzed against 0.9% NaCl at 4° C. for ˜2 days using a 25 kDa MWCO dialysis membrane to remove purines. This process completely removes the purines normally present in FBS.
# Cells were typically grown using ˜1 to 2×10^4 cells per well at passage 3 to 15 suspended in 50 μl of the corresponding culture medium in the biosensor microplate, and were cultured at 37° C. under air/5% CO2 for ˜1 day. The confluency for all cells at the time of assays was ˜100%.
# Epic® wavelength interrogation system (Corning Inc., Corning, N.Y.) was used for whole cell sensing. This system consists of a temperature-control unit, an optical detection unit, and an on-board liquid handling unit with robotics. The detection unit is centered on integrated fiber optics, and enables kinetic measures of cellular responses with a time interval of ˜15sec. The compound solutions were introduced by using the on-board liquid handling unit (i.e., pippetting).
# (§1) For biosensor cellular assays, compound solutions were made by diluting the stored concentrated solutions with the HBSS (1× Hanks balanced salt solution, plus 20 mM Hepes, pH 7.1), and transferred into a 384 well polypropylene compound storage plate to prepare a compound source plate. Two compound source plates were made separately when a two-step assay was performed. In parallel, the cells were washed twice with the HBSS and maintained in 30 μl of the HBSS to prepare a cell assay plate. Both the cell assay plate and the compound source plate(s) were then incubated in the hotel of the reader system. After incubation the baseline wavelengths of all biosensors in the cell assay microplate were recorded and normalized to zero. Afterwards, a 2 to 10 min continuous recording was carried out to establish a baseline, and to ensure that the cells reached a steady state. Cellular responses were then triggered by transferring 10 μl of the compound solutions into the cell assay plate using the on-board liquid handler.
# All studies were carried out at a controlled temperature (28° C.). At least two independent sets of experiments, each with at least three replicates, were performed.
# HeLa cells [2] = assay: Label-free Epic DMR assay in HeLa cells cultured in purine depleted medium; settings: TBB 100 μM, DMAT 25 μM
# Source text: HeLa cells were obtained from American Type Cell Culture (Manassas, Va.). This cervical cancer cell line was maintained in standard serum medium (i.e., minimum essential medium (MEM) (Invitrogen) supplemented with 10% fetal bovine serum (FBS) and 1% Penicillin/streptomycin). To investigate the effects of purine depletion on the purinosome formation and dissociation, HeLa cells were maintained for at least two passages in “purine-depleted medium” prior cell assays. The purine depleted medium is a medium consisting of Roswell Park Memorial Institute 1640 (RPMI 1640) supplemented with dialyzed 5% FBS […]. FBS was dialyzed against 0.9% NaCl at 4° C. for ˜2 days using a 25 kDa MWCO dialysis membrane to remove purines. This process completely removes the purines normally present in FBS. […]
# For biosensor cellular assays, compound solutions were made by diluting the stored concentrated solutions with the HBSS (1× Hanks balanced salt solution, plus 20 mM Hepes, pH 7.1), and transferred into a 384 well polypropylene compound storage plate to prepare a compound source plate. […] Both the cell assay plate and the compound source plate(s) were then incubated in the hotel of the reader system. After incubation the baseline wavelengths of all biosensors in the cell assay microplate were recorded and normalized to zero. […]
# purinosome complexes = assay: Fluorescence imaging of purinosome complexes, transient transfection of fluorescent purine synthesis enzymes; settings: purine depleted medium cultured cells, low confluency (~50%); data not shown
# Source text: The inconsistency in the action of TBB between fluorescence imaging and label-free cellular assays can be due to that confocal fluorescence imaging is largely single cell-based, while label-free assay is largely population cells-based, as well as different confluencies used in both assays.
# HT29 cells = assay: TBB-mediated DMR signal in HT29 cells; settings: 10 μM TBB, highly confluent cells
# Experimental: as §1, with “All other cell lines were obtained from American Type Cell Culture (Manassas, VA) and were cultured under corresponding standard culture conditions, according to the protocol recommended by the supplier. Cells were typically grown using ˜1 to 2×10^4 cells per well at passage 3 to 15 suspended in 50 μl of the corresponding culture medium in the biosensor microplate, and were cultured at 37° C. under air/5% CO2 for ˜1 day. The confluency for all cells at the time of assays was ˜100%. For” for “For”, “Cellular responses were then triggered by transferring 10 μl of the compound solutions into the cell assay plate using the on-board liquid handler.” left out
SMILES,Effect of pretreatment on the DMAT DMR response (HeLa cells [1]),Effect of pretreatment on the TBB DMR response (HeLa cells [1]),Type of DMR signal triggered by the compound alone (HeLa cells [1]),Classification as purinosome promoting or disrupting CK2 inhibitor (HeLa cells [1]),Effect of pretreatment on the sequential TBB response after DMAT (HeLa cells [1]),further results
"C[C@@H]1NC(=O)[C@H](C[C@@](C)(O)CO)NC(=O)[C@@H]2Cc3c([nH]c4ccccc34)SC[C@H](NC(=O)[C@@H]([C@H](C)O)NC1=O)C(=O)N1C[C@@H](O)C[C@H]1C(=O)N[C@@H](C)C(=O)N2 [phalloidin] (cyclo(A[dT]C[cisHyp]A[Trp(2-yl)][Leu(4R-OH,5-OH)]); thioether 3-6)",little impact,little impact,,,,
"O=C(O)/C=C/c1cc(Br)c(Br)c(Br)c1Br [TBCA, Tetrabromocinnamic Acid]",desensitized,slightly potentiated,DMR signals similar to the DMAT response,purinosome promoting CK2 inhibitors,,
Clc1cccc(Cl)c1N=C1NCCN1 [clonidine],,dose-dependently potentiated,,,,
COC(=O)Nc1nc2ccc(C(=O)c3cccs3)cc2[nH]1 [nocodazole],potentiated,reversed,,,slightly suppressed,Effect of pretreatment on the sequential DMAT response after TBB (HeLa cells [1]): suppression
"Brc1c(Br)c(Br)c2[nH]nnc2c1Br [TBB, 4,5,6,7-tetrabromobenzotriazole]",slightly potentiated,,N-DMR,pruinosome disrupting CK2 inhibitors,,"EC50 (HeLa cells [1]; 50 min, amplitude 50 min after stimulation, read-out: EC50 of dose-dependent N-DMR signal): 25 µM; Effect on purinosome complexes in quiescent cells (HeLa cells [1]): causes the disassembly of basal purinosome complexes; Effect on purinosome complexes in proliferating cells (HeLa cells [1]): promote the formation of purinosomes; Sensitivity of the DMR signal to cellular status (HeLa cells [1]): dramatically sensitive to cellular status; Type of DMR signal in purine depleted culture (HeLa cells [2]): P-DMR; Effect on purinosome complexes by fluorescence imaging (purinosome complexes): disassembly of purinsome complexes; TBB DMR signal in HT29 cells (HT29 cells): an initial P-DMR followed by a N-DMR"
C/C1=C/C(=O)O[C@@H]2C[C@@H](CC[C@H](C)/C=C\C=C\CC1)O[C@@](O)([C@@H]1CSC(=O)N1)C2 [latrunculin A],attenuated,completely inhibiting the early DMR event,,,altered,Effect of pretreatment on the sequential DMAT response after TBB (HeLa cells [1]): smaller DMAT response
CC[C@]1(O)C[C@@H]2CN(CCc3c([nH]c4ccccc34)[C@@](C(=O)OC)(c3cc4c(cc3OC)N(C)[C@H]3[C@@](O)(C(=O)OC)[C@H](OC(C)=O)[C@]5(CC)C=CCN6CC[C@]43[C@@H]65)C2)C1 [vinblastine],,reversed,,,,Effect of pretreatment on the sequential DMAT response after TBB (HeLa cells [1]): suppression
O=c1cc(-c2ccc(O)cc2)oc2cc(O)cc(O)c12 [apigenin],,,DMR signals similar to the DMAT response,purinosome promoting CK2 inhibitors,,
"OC[C@H]1O[C@@H](n2cnc3cc(Cl)c(Cl)cc32)[C@H](O)[C@@H]1O [DRB, 5,6-Dichlorobenzimidazole 1-(β-D-ribofuranoside]",desensitized,slightly potentiated,DMR signals similar to the DMAT response,purinosome promoting CK2 inhibitors,,
"CN(C)c1nc2c(Br)c(Br)c(Br)c(Br)c2[nH]1 [DMAT, 2-Dimethylamino-4,5,6,7-tetrabromo-1H-benzimidazole]",,N-DMR similar to the buffer treated cells,P-DMR,purinosome promoting CK2 inhibitors,,"EC50 (HeLa cells [1]; dependent on the time points after stimulation (6 min and 50 min), read-out: EC50 of dose-dependent P-DMR response): 5 to 22 µM; Effect on purinosome complexes in quiescent cells (HeLa cells [1]): promotes the further formation of purinosome complexes; Effect on purinosome complexes in proliferating cells (HeLa cells [1]): promote the formation of purinosomes; Sensitivity of the DMR signal to cellular status (HeLa cells [1]): insensitive to cellular status; Type of DMR signal in purine depleted culture (HeLa cells [2]): P-DMR; Effect on purinosome complexes by fluorescence imaging (purinosome complexes): formation of purinosome complexes"
Cc1cc(C(C)(C)C)c(O)c(C)c1CC1=NCCN1 [oxymetazoline],attenuated,,Gi-like DMR signal,,potentiation,
CC(C)(C)NCC(O)c1cc(O)cc(O)c1 (stereo not drawn) [terbutaline],little or no impact,,Gs-like DMR signal,,little or no impact,
